# Patent US20140051679A1, “KINASE INHIBITORS AND METHOD OF TREATING CANCER WITH SAME” (UNIVERISTY HEALTH NETWORKS, priority 2011, published 2014)
# Columns and labels:
# [1] = biological target: T1, human TTK (Homo sapiens, UniProt P33981); assay: TTK inhibition assay (indirect ELISA); assay type: biochemical; details: GST-TTK 0.68 nM, 16 μM ATP; read-out: IC50 Ranges TTK
# T1 construct: amino terminal GST fusion of full length human TTK; purchased Invitrogen
# T1 sequence (P33981 1-857): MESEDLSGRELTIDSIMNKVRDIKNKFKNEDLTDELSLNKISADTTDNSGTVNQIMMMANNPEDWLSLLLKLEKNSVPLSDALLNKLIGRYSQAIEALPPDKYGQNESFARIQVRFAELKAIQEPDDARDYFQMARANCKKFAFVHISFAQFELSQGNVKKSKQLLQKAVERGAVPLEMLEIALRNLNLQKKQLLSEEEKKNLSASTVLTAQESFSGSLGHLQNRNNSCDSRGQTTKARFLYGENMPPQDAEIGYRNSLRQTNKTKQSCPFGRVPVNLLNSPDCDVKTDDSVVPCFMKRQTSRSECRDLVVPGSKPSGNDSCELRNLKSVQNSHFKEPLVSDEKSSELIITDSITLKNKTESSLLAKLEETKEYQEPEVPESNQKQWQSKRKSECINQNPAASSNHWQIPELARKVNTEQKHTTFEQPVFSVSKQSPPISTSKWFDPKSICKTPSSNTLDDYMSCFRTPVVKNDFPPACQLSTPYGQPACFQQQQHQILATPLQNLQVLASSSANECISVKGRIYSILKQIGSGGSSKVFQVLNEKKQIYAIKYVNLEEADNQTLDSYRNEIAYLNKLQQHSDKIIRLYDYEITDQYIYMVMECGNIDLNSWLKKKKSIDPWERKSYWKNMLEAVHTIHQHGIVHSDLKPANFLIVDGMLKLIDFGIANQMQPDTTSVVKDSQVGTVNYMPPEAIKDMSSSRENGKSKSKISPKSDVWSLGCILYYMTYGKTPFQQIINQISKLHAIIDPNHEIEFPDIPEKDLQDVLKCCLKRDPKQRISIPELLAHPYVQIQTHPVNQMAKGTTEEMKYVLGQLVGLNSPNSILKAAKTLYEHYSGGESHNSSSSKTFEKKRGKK
# [2] = biological target: T2, human PLK4 (Homo sapiens, UniProt O00444); assay: PLK4 inhibition assay (indirect ELISA); assay type: biochemical; details: GST-PLK4 4 nM, 15 μM ATP; read-out: IC50 Ranges PLK4
# T2 construct: amino terminal GST fusion of residues 1-391 of human PLK4; made in house; host or cells: E. coli
# T2 sequence (O00444 1-391): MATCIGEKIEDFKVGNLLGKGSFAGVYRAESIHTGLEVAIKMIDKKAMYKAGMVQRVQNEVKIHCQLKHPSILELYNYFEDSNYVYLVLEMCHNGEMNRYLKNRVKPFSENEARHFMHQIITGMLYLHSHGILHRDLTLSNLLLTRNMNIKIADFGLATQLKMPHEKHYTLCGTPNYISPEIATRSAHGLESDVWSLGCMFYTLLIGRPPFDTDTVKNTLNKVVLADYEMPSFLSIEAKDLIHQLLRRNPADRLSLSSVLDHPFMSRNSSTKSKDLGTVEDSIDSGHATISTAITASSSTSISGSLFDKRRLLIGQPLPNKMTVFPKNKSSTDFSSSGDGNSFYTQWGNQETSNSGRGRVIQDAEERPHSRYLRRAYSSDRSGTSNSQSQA
# Procedure: Active PLK4 was purified from an E. coli expression system as an amino terminal GST fusion of residues 1-391 of human PLK4. The protein was purified from clarified cell extracts after induction at 15° C. overnight using glutathione sepharose, gel permeation chromatography, and ion exchange (Resource Q). The resulting protein was dephosphorylated with lambda phosphatase (NEB cat#P0753), and resolved from the phosphatase using gluthione sepharose. The dephosphorylated GST-PLK4 was stored in aliquots at −80° C. until use.
# PLK4 activity was measured using an indirect ELISA detection system. GST-PLK4 (4 nM) was incubated in the presence of 15 μM ATP (Sigma cat#A7699), 50 mM HEPES-Na^2+ pH 7.5, 10 mM MgCl2, 0.01% Brij 35 (Sigma cat#03-3170), in a 96 well microtitre plate pre-coated with MBP (Millipore cat#30-011). The reaction was allowed to proceed for 30 minutes, followed by 5 washes of the plate with Wash Buffer (phosphate buffered saline supplemented with 0.2% Tween 20), and incubation for 30 minutes with a 1:3000 dilution of primary antibody (Cell Signaling cat#9381). The plate was washed 5 times with Wash Buffer, incubated for 30 minutes in the presence of secondary antibody coupled to horse radish peroxidase (BioRad cat#1721019, 1:3000 concentration), washed an additional 5 times with Wash Buffer, and incubated in the presence of TMB substrate (Sigma cat#T0440). The colourimetric reaction was allowed to continue for 5 minutes, followed by addition of stop solution (0.5 N sulphuric acid), and quantified by detection at 450 nm with either a monochromatic or filter based plate reader (Molecular Devices M5 or Beckman DTX880, respectively).
# Compound inhibition was determined at either a fixed concentration (10 μM) or at a variable inhibitor concentration (typically 0.5 μM to 0.001 μM in a 10 point dose response titration). Compounds were pre-incubated in the presence of enzyme for 15 minutes prior to addition of ATP and the activity remaining quantified using the above described activity assay. The % Inhibition of a compound was determined using the following formula; % Inhibition=100×(1-(experimental value−background value)/(high activity control−background value)). The IC50 value was determined using a non-linear 4 point logistic curve fit (XLfit4, IDBS) with the formula; (A+(B/(1+((x/C)̂D)))), where A=background value, B=range, C=inflection point, D=curve fit parameter.
# [3] = biological target: T3, Aurora B (Homo sapiens, UniProt Q96GD4); assay: Aurora B inhibition assay (Z-Lyte); assay type: biochemical; details: 28 nM Aurora B, 128 μM ATP; read-out: IC50 Ranges Aurora B
# T3 construct: purchased Invitrogen PV3970
# T3 sequence (Q96GD4 whole entry): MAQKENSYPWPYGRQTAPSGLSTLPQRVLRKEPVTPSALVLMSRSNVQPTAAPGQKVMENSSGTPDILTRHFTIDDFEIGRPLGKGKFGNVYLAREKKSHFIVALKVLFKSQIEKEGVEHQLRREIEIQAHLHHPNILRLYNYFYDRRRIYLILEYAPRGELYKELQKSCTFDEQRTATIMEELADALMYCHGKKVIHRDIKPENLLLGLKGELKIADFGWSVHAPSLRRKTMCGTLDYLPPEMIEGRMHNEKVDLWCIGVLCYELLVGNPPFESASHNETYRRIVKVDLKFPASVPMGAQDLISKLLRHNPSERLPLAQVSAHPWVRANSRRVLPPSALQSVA
# Procedure: Aurora B inhibition was determined using the Z-Lyte assay kit from Invitrogen. The assay was performed using the recommended manufacturer's instructions with 128 μM ATP and 28 nM Aurora B (Invitrogen cat #PV3970). The % inhibition values were determined according to the manufacturer's directions and IC50 values were obtained using a non-linear 4 point logistic curve fit (XLfit4, IDBS)
# [4] = system: MDA-MB-468 breast cancer cells; assay: Cell growth inhibition, Sulforhodamine B assay, MDA-MB-468; assay type: cell-based; details: Homo sapiens, 120 h, 5 days culture, SRB assay, read-out: Cell Line GI50 Range MDA-MB-468
# [5] = system: HCT116 colon cancer cells; assay: Cell growth inhibition, Sulforhodamine B assay, HCT116; assay type: cell-based; details: Homo sapiens, HCT-116, 120 h, 5 days culture, SRB assay, read-out: Cell Line GI50 Range HCT116
# [6] = system: HT29 colon cancer cells; assay: Cell growth inhibition, Sulforhodamine B assay, HT29; assay type: cell-based; details: Homo sapiens, HT-29, 120 h, 5 days culture, SRB assay, read-out: Cell Line GI50 Range HT29
Compound,IC50 [1] [µM],IC50 [2] [µM],IC50 [3] [µM],GI50 [4] [µM],GI50 [5] [µM],GI50 [6] [µM]
"COc1cc(-c2n[nH]c3ccc(C(=O)NC(c4ccccn4)C4CC4)cc23)ccc1OC1CCN(C=O)CC1 (stereo not drawn) [Example A206, N-(cyclopropyl(pyridin-2-yl)methyl)-3-(4-((1-formylpiperidin-4-yl)oxy)-3-methoxyphenyl)-1H-indazole-5-carboxamide]",≤ 5,≤ 5,≤ 5,–,–,–
"C[C@H]1CCCN1[C@H](C(=O)Nc1ccc2[nH]nc(-c3ccc(N4CCOCC4)cc3)c2c1)c1ccsc1 [Example A47, (S)-2-((S)-2-methylpyrrolidin-1-yl)-N-(3-(4-morpholinophenyl)-1H-indazol-5-yl)-2-(thiophen-3-yl)acetamide]",≤ 5,≤ 5,≤ 5,≤ 5,≤ 5,≤ 5
"CN1CCC(Oc2ccc(-c3n[nH]c4ccc(C(=O)NCC(c5ccccc5)C5CCCC5)cc34)cc2)CC1 (stereo not drawn) [Example A207, N-(2-cyclopentyl-2-phenylethyl)-3-(4-((1-methylpiperidin-4-yl)oxy)phenyl)-1H-indazole-5-carboxamide]",≤ 5,≤ 5,≤ 5,–,–,–
"O=CN1CCC(Oc2ccc(-c3n[nH]c4ccc(C(=O)N[C@@H](c5ncccc5Cl)C5CC5)cc34)cc2)CC1 [Example A211, (R)—N-((3-chloropyridin-2-yl)(cyclopropyl)methyl)-3-(4-((1-formylpiperidin-4-yl)oxy)phenyl)-1H-indazole-5-carboxamide]",≤ 5,≤ 5,≤ 5,–,–,–

# Other lines, results leading:
IC50 [1] [µM],IC50 [2] [µM],IC50 [3] [µM],GI50 [4] [µM],GI50 [5] [µM],GI50 [6] [µM],Compound
≤ 5,≤ 5,≤ 5,≤ 5,≤ 5,≤ 5,"O=C(N[C@H](c1ccccc1)C1CC1)c1ccc2[nH]nc(-c3ccc(N4CCOCC4)cc3)c2c1 [Example A49, (S)—N-(cyclopropyl(phenyl)methyl)-3-(4-morpholinophenyl)-1H-indazole-5-carboxamide]"
≤ 5,≤ 5,≤ 5,≤ 5,≤ 5,≤ 5,"C[C@@H]1CN(c2ccc(-c3n[nH]c4ccc(NC(=O)C(c5ccsc5)N5CCCC5)cc34)cc2)C[C@H](C)O1 (stereo partly drawn) [Example A50, N-(3-(4-((2S,6R)-2,6-dimethylmorpholino)phenyl)-1H-indazol-5-yl)-2-(pyrrolidin-1-yl)-2-(thiophen-3-yl)acetamide]"
≤ 5,≤ 5,≤ 5,≤ 5,≤ 5,≤ 5,"CN(c1ccc(-c2n[nH]c3ccc(NC(=O)C(c4ccsc4)N4CCCC4)cc23)cc1)C1CCOCC1 (stereo not drawn) [Example A78, N-(3-(4-(methyl(tetrahydro-2H-pyran-4-yl)amino)phenyl)-1H-indazol-5-yl)-2-(pyrrolidin-1-yl)-2-(thiophen-3-yl)acetamide]"
≤ 5,≤ 5,≤ 5,≤ 5,≤ 5,≤ 5,"COC(C(=O)Nc1ccc2[nH]nc(-c3ccc(OC4CCN(C)CC4)cc3)c2c1)c1ccsc1 (stereo not drawn) [Example A37, 2-methoxy-N-(3-(4-((1-methylpiperidin-4-yl)oxy)phenyl)-1H-indazol-5-yl)-2-(thiophen-3-yl)acetamide]"
≤ 5,≤ 5,≤ 5,≤ 5,≤ 5,≤ 5,"CN1CCC(Oc2ccc(-c3n[nH]c4ccc(NC(=O)C5c6ccccc6CCN5C)cc34)cc2)CC1 (stereo not drawn) [Example A39, 2-methyl-N-(3-(4-((1-methylpiperidin-4-yl)oxy)phenyl)-1H-indazol-5-yl)-1,2,3,4-tetrahydroisoquinoline-1-carboxamide]"
≤ 5,≤ 5,≤ 5,≤ 5,≤ 5,≤ 5,"O=C(N[C@@H](c1ccccc1)C1CC1)c1ccc2[nH]nc(-c3ccc(N4CCOCC4)cc3)c2c1 [Example A51, (R)—N-(cyclopropyl(phenyl)methyl)-3-(4-morpholinophenyl)-1H-indazole-5-carboxamide]"
